Assay results reported in PubChem BioAssay (NCI).
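Dose response: 5 concentrations. Exposure: 48 h. Format: 96-well plates. Endpoint: linear interpolation; highest concentration if not reached. TGI: concentration producing complete growth inhibition.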

Assays:
Assay in all cases: inhibition of tumour cell growth, NCI panel, 48 h
KM20L2 colon = test system: KM20L2 colon
HOP-62 NSCLC = test system: HOP-62 NSCLC
ACHN renal = test system: ACHN renal
HOP-92 NSCLC = test system: HOP-92 NSCLC
DMS 114 small cell lung = test system: DMS 114 small cell lung
DMS 273 small cell lung = test system: DMS 273 small cell lung
SF-539 CNS = test system: SF-539 CNS
M19-MEL melanoma = test system: M19-MEL melanoma
XF 498 CNS = test system: XF 498 CNS
UACC-62 melanoma = test system: UACC-62 melanoma
LXFL 529 NSCLC = test system: LXFL 529 NSCLC
SNB-78 CNS = test system: SNB-78 CNS
HL-60(TB) leukemia = test system: HL-60(TB) leukemia
SN12C renal = test system: SN12C renal
HOP-18 NSCLC = test system: HOP-18 NSCLC
DLD-1 colon = test system: DLD-1 colon

Row | SMILES | TGI (KM20L2 colon) [µM] | TGI (HOP-62 NSCLC) [µM] | TGI (ACHN renal) [µM] | TGI (HOP-92 NSCLC) [µM] | TGI (DMS 114 small cell lung) [µM] | TGI (DMS 273 small cell lung) [µM] | TGI (SF-539 CNS) [µM] | TGI (M19-MEL melanoma) [µM] | TGI (XF 498 CNS) [µM] | TGI (UACC-62 melanoma) [µM] | TGI (LXFL 529 NSCLC) [µM] | TGI (SNB-78 CNS) [µM] | TGI (HL-60(TB) leukemia) [µM] | TGI (SN12C renal) [µM] | TGI (HOP-18 NSCLC) [µM] | TGI (DLD-1 colon) [µM]
1 | CCOC(=O)/C(=C/c1ccccc1)N(CC)CC | > 100 | > 100 | > 100 | > 100 | > 100 | > 100 | > 100 | > 100 | > 100 | > 100 | > 100 | > 100 | > 100 | > 100 | – | –
2 | CN(C)CCSC(=Nc1ccccc1)n1cccc1 | > 100 | > 100 | > 100 | 82.1 | 80.8 | > 100 | > 100 | > 100 | > 100 | > 100 | > 100 | 76.9 | > 100 | > 100 | > 100 | > 100
3 | N#CC(C(=S)Nc1ccccc1)=C1Nc2ccccc2N1 | > 10 | > 10 | > 10 | > 10 | > 10 | > 10 | > 10 | > 10 | > 10 | > 10 | > 10 | – | > 10 | > 10 | > 10 | > 10
4 | N#CC(C#N)=C(N)/C(C#N)=C/c1ccc(O)c(O)c1 | > 100 | > 100 | > 100 | > 100 | > 100 | > 100 | > 100 | > 100 | > 100 | > 100 | > 100 | > 100 | > 83.3 | > 100 | – | > 100
5 | COc1cc(CO)cc2c1[nH]c1ccccc12 | > 25 | > 25 | > 25 | > 25 | > 25 | > 25 | > 25 | > 25 | > 25 | > 25 | > 25 | > 25 | > 25 | > 25 | > 25 | > 25
6 | CCOc1cc2cnc3c4cc(OC)c(OC)cc4ccc3c2cc1OC | > 100 | > 100 | > 100 | > 100 | > 100 | – | > 100 | > 100 | – | > 100 | > 100 | > 100 | > 100 | > 100 | > 100 | > 100
7 | O[C@]12c3ccccc3C1CCCC2N1CCOCC1 (stereo partly specified) | > 100 | > 100 | > 100 | – | > 100 | > 100 | – | > 100 | > 100 | > 100 | > 100 | > 100 | > 100 | > 100 | > 100 | –
8 | COc1cc2c(cc1OC)C(Cc1cc(Br)c(OC)c(OC)c1)=[N+](C)CC2 | > 100 | > 100 | > 100 | > 100 | 57 | – | > 100 | > 100 | – | > 100 | > 100 | > 100 | > 100 | > 100 | > 100 | > 100
9 | CC1(C)OC2C(O1)[C@H]1OC(C(Cl)(Cl)Cl)=N[C@H]1C(I)[C@H]2N1C(=O)c2ccccc2C1=O (stereo partly specified) | > 100 | > 100 | > 100 | > 100 | > 100 | > 100 | > 100 | > 100 | – | > 100 | > 100 | > 100 | 44.4 | > 100 | > 100 | > 100
10 | O=C(c1nc2ccc(Cl)cc2[nH]c1=O)C(O)c1cccc([N+](=O)[O-])c1 (stereo unspecified) | > 100 | > 100 | > 100 | > 100 | 17.6 | > 100 | > 100 | > 100 | > 100 | > 100 | > 100 | > 100 | 74.1 | > 100 | > 100 | > 100
11 | NC(=S)N/N=C(/CCN1CCCC1)CC(C1=C(O)C2=CCCCC2OC1=O)c1ccccc1 (stereo unspecified) | > 100 | > 100 | > 100 | > 100 | – | – | > 100 | > 100 | > 100 | > 100 | > 100 | > 100 | > 100 | > 100 | > 100 | > 100
12 | COc1ccc([C@H]2[C@@H]3CCc4ccccc4C3=NN2C(N)=S)cc1OC | > 100 | > 100 | > 100 | > 100 | 93.7 | – | > 100 | > 100 | > 100 | > 100 | > 100 | > 100 | 54.8 | > 100 | > 100 | > 100
13 | O=C(Cc1ccccc1)N/N=C(/c1nc2ccc([N+](=O)[O-])cc2[nH]c1=O)C(O)c1ccco1 (stereo unspecified) | – | > 100 | > 100 | > 100 | > 100 | – | > 100 | > 100 | > 100 | > 100 | > 100 | > 100 | > 100 | > 100 | > 100 | > 100
